Values of other authors in US9756853B2, “Solid pesticidal formulation” (priority 2013, dated 2017).
Converted amounts (≈) assume the structure as drawn.

Settings: 20° C.

CN/C(=N/CC1CCOC1)N[N+](=O)[O-] (stereo not shown) [dinotefuran]
solubility in water: 40 mg/mL (≈ 198 mM)
